Measurements as given in patent US11541057B2, “Thienopyrimidinone NMDA receptor modulators and uses thereof” (Cadent Therapeutics, Inc., priority 2015, dated 2023).

These compounds were tested against T1, NMDA receptor GRIN1/GRIN2B (NR2B) expressed in HEK293 cells (Homo sapiens, UniProt Q13224) (assay: Reversal of Ro 25-6981-mediated suppression of the Ca2+ response (fluo-8 fluorescence, FDSS) in HEK293 cells expressing GRIN1 and GRIN2B). Conditions: % reversal=100*(R−Rneg)/(Rpos−Rneg) of Ro 25-6981 suppression of co-agonist (glutamate/glycine) Ca2+ response, 10 min pre-incubation, compound concentration not given.
T1 construct: host or cells: HEK293
T1 sequence (Q13224 27-1484, other chains not shown): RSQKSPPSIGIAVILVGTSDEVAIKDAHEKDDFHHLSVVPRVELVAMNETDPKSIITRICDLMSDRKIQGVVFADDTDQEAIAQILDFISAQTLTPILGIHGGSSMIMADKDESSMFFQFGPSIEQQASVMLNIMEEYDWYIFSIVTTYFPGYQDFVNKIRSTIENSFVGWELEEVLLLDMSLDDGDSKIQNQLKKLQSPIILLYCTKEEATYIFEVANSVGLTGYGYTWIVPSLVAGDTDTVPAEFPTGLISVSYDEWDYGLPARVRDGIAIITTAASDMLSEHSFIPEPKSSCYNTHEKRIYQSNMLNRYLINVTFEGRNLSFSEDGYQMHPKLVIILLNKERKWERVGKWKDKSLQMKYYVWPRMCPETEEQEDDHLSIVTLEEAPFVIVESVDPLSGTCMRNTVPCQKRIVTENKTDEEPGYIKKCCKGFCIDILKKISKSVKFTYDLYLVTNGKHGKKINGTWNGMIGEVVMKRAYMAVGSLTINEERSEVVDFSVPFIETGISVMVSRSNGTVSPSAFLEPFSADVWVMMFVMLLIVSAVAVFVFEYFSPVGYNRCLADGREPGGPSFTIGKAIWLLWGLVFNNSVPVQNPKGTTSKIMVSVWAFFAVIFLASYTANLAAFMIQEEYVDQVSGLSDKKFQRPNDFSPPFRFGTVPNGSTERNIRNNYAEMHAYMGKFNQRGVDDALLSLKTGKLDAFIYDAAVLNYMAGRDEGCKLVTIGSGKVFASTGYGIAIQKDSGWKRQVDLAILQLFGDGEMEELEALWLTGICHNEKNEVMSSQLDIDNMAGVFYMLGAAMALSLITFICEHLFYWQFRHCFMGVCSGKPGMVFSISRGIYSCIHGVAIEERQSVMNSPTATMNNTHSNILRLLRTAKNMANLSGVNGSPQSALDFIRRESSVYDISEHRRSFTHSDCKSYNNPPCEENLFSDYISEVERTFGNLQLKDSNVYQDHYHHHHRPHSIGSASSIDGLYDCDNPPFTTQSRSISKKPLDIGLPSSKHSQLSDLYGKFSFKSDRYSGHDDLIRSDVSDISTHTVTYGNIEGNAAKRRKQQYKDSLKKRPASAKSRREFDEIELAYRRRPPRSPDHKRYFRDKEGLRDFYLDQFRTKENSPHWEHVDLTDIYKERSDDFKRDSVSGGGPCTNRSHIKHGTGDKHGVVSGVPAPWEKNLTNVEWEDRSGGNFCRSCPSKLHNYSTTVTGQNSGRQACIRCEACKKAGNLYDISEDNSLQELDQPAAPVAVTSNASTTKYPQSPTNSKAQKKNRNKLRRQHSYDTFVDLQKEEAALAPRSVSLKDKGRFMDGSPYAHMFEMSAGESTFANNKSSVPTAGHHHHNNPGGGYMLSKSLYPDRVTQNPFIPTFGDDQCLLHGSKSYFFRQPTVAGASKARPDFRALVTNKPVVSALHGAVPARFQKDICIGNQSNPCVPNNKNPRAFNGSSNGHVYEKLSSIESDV
Format: cell-based
Protocol: HEK293 cells with constructs conferring stable expression of the GRIN1 gene and tetracycline-inducible expression of the GRIN2B gene (Chantest, Cleveland, Ohio) are grown to ˜75% confluence in tissue culture flasks at 37° C., 5% CO2. NR2B expression is induced by overnight incubation with 0.3-0.4 μg/ml tetracycline in the presence of 2.5 mM ARL-15896 at 37° C., followed by moving to 30° C. for 3-5 hours. Cells are next harvested using TripleExpress™ (Life Technologies, Carlsbad, Calif.) according to the manufacturer's instructions, first removing culture medium, rinsing with Dulbecco's phosphate buffered saline (Ca^2+ and Mg^2+-free), and then adding the TripleExpress™ reagent. Harvested cells are spun down, washed twice in Ca^2+- and Mg^2+-free Hank's Balanced Salt Solution with 20 mM HEPES and 10 mM glucose, pH 7.4 (HHnoCa solution), and counted with viability assessed using Trypan Blue. Cells are loaded with fluo-8 Ca^2+-sensitive dye in HHnoCa solution according to the manufacturer's directions (AAT Bioquest, Sunnyvale, Calif.), incubating at 37° C. for 20 minutes followed by 25 minutes at 22-25° C. After a wash in HHnoCa to remove extracellular dye, cells are resuspended in HHnoCa and plated at […] cells per well in a volume of 25 μl/well in 384 well black-wall, clear bottom plates (Hamamatsu, Middlesex, N.J.). Plates are then centrifuged to create a monolayer in the wells and stored in the dark until used.
Prior to analysis, compound plates are prepared with each compound at 6× the final desired concentration. From stock solutions at 10 mM in 100% DMSO, compounds are spotted in the desired amounts using an ECHO liquid handler (Labcyte, Sunnyvale, Calif.) into wells of a 384-well plate and then diluted with 50 μl of HHnoCa containing 750 nM Ro 25-6981 and 120 μM 5,7-dichlorokynurenic acid (both purchased from Tocris Bioscience (Bristol, England) and maintained as 10 mM stock solutions in 100% DMSO). To insure complete compound dissolution, these plates are then placed in an orbital shaker for at least one hour. Also prepared prior to the assay is a co-agonist plate containing HHnoCa with 240 μM glutamate, 2.4 mM glycine, and 7.2 mM CaCl2, which is 2.4× the desired final concentration of each reagent. Both the compound plate and co-agonist plate are 384-well polypropylene plates from Thermo Fisher Scientific, Waltham, Mass.
The assay is performed by first adding 10 μl solution from each well of the compound plate described above to the cell plate using a CyBiWell liquid handler (Analytik Jena AG, Jena, Germany), followed by 10 minutes pre-incubation in the dark. Cell plates are then loaded onto a Hamamatsu FDSS 6000 plate reader. After a 30-second baseline, 25 μl is added to each well from the co-agonist plate, and the fluorescence signal is recorded for another 2 minutes. FDSS software applies shading and autofluorescence correction, and resultant raw fluorescence measurements are exported in the form of a fluorescence ratio for each well to its own reading at time zero in the experiment. In each plate, negative control wells consist of wells where Ro 25-6981 and 5,7 dichlorokynurenic acid are present and co-agonist is applied in the absence of any added assay compound. Under these conditions, the Ca^2+ response to co-agonist is suppressed. Positive control wells also present in each plate contain 5,7 dichlorokynurenic acid but no Ro 25-6981, so that co-agonist addition results in a large Ca^2+ response. Compounds tested are evaluated on the basis of their ability to reverse the suppression of the Ca^2+ response mediated by Ro 25-6981, which is quantified as % reversal=100*(R−Rneg)/(Rpos−Rneg) where R is the fluorescence ratio for the test compound at the end of the experiment and Rneg and Rpos are the end ratios for the negative and positive controls, respectively. […]

Row | Structure (SMILES) | Response Recovered (%)
1 | O=C(Cn1cnc2scc(-c3ccc(Cl)c(Cl)c3)c2c1=O)N1CCC(F)C1 (centres unmarked) [Example 60, 5-(3,4-dichlorophenyl)-3-[2-(3-fluoropyrrolidin-1-yl)-2-oxoethyl]-3H,4H-thieno[2,3-d]pyrimidin-4-one] | 98
2 | O=C(Cn1cnc2scc(-c3ccc(F)c(C(F)(F)F)c3)c2c1=O)N1CCC(F)C1 (centres unmarked) [Example 61] | 83
3 | O=C(Cn1cnc2scc(-c3ccc(C(F)(F)F)c(Cl)c3)c2c1=O)N1CCC(F)C1 (centres unmarked) [Example 62] | 62
4 | O=C(Cn1cnc2scc(-c3cnc(Cl)c(Cl)c3)c2c1=O)N1CCC(F)C1 (centres unmarked) [Example 63, 5-(5,6-dichloropyridin-3-yl)-3-[2-(3-fluoropyrrolidin-1-yl)-2-oxoethyl]-3H,4H-thieno[2,3-d]pyrimidin-4-one] | 10
5 | O=C(Cn1cnc2scc(-c3ccc(Cl)c(C(F)(F)F)c3)c2c1=O)N1CC[C@@H](F)C1 [Example 64, 5-[4-chloro-3-(trifluoromethyl)phenyl]-3-{2-[(3R)-3-fluoropyrrolidin-1-yl]-2-oxoethyl}-3H,4H-thieno[2,3-d]pyrimidin-4-one] | 117
6 | O=C(Cn1cnc2scc(-c3ccc(Cl)c(C(F)(F)F)c3)c2c1=O)N1CC[C@H](F)C1 [Example 65, 5-[4-chloro-3-(trifluoromethyl)phenyl]-3-{2-[(3S)-3-fluoropyrrolidin-1-yl]-2-oxoethyl}-3H,4H-thieno[2,3-d]pyrimidin-4-one] | 87
7 | O=C(Cn1cnc2scc(-c3ccc(Cl)c(C(F)(F)F)c3)c2c1=O)N1C[C@@H](F)[C@@H](F)C1 [Example 66, 5-[4-chloro-3-(trifluoromethyl)phenyl]-3-{2-[(3R,4S)-3,4-difluoropyrrolidin-1-yl]-2-oxoethyl}-3H,4H-thieno[2,3-d]pyrimidin-4-one] | 103
8 | O=C(Cn1cnc2scc(-c3ccc(Cl)c(Cl)c3)c2c1=O)N1C[C@@H](F)[C@@H](F)C1 [Example 67, 5-(3,4-dichlorophenyl)-3-{2-[(3R,4S)-3,4-difluoropyrrolidin-1-yl]-2-oxoethyl}-3H,4H-thieno[2,3-d]pyrimidin-4-one] | 84
9 | O=C(Cn1cnc2scc(-c3ccc(Cl)c(Cl)c3)c2c1=O)N1CC[C@@H](F)C1 [Example 68, 5-(3,4-dichlorophenyl)-3-{2-[(3R)-3-fluoropyrrolidin-1-yl]-2-oxoethyl}-3H,4H-thieno[2,3-d]pyrimidin-4-one] | 71
10 | O=C(Cn1cnc2scc(-c3ccc(Cl)c(Cl)c3)c2c1=O)N1CC[C@H](F)C1 [Example 69, 5-(3,4-dichlorophenyl)-3-{2-[(3S)-3-fluoropyrrolidin-1-yl]-2-oxoethyl}-3H,4H-thieno[2,3-d]pyrimidin-4-one] | 94
11 | O=C(Cn1cnc2scc(-c3cnc(Cl)c(C(F)(F)F)c3)c2c1=O)N1CCC(F)C1 (centres unmarked) [Example 70, 5-[6-chloro-5-(trifluoromethyl)pyridin-3-yl]-3-[2-(3-fluoropyrrolidin-1-yl)-2-oxoethyl]-3H,4H-thieno[2,3-d]pyrimidin-4-one] | 22
12 | O=C(Cn1cnc2scc(-c3cnc(Cl)c(C(F)(F)F)c3)c2c1=O)N1CC(F)C(F)C1 (centres unmarked) [Example 71, 5-[6-chloro-5-(trifluoromethyl)pyridin-3-yl]-3-[2-(3,4-difluoropyrrolidin-1-yl)-2-oxoethyl]-3H,4H-thieno[2,3-d]pyrimidin-4-one] | 25
13 | O=C(Cn1cnc2scc(-c3cnc(Cl)c(Cl)c3)c2c1=O)N1CC(F)C(F)C1 (centres unmarked) [Example 72, 5-(5,6-dichloropyridin-3-yl)-3-[2-(3,4-difluoropyrrolidin-1-yl)-2-oxoethyl]-3H,4H-thieno[2,3-d]pyrimidin-4-one] | 15
14 | O=C(Cn1cnc2scc(-c3cnc(F)c(Cl)c3)c2c1=O)N1CC(F)C(F)C1 (centres unmarked) [Example 73, 5-(5-chloro-6-fluoropyridin-3-yl)-3-[2-(3,4-difluoropyrrolidin-1-yl)-2-oxoethyl]-3H,4H-thieno[2,3-d]pyrimidin-4-one] | 11
15 | O=C(Cn1cnc2sc(-c3ccc(Cl)cc3)cc2c1=O)N1CCCC1 [Example 74, 6-(4-chlorophenyl)-3-(2-oxo-2-(pyrrolidin-1-yl)ethyl)thieno[2,3-d]pyrimidin-4(3H)-one] | 1
16 | O=C(Cn1cnc2sc(-c3ccc(Cl)cc3)cc2c1=O)N1CCCCC1 [Example 75, 6-(4-chlorophenyl)-3-[2-oxo-2-(piperidin-1-yl)ethyl]-3H,4H-thieno[2,3-d]pyrimidin-4-one] | 0
17 | O=C(Cn1cnc2sc(-c3ccc(Cl)cc3)cc2c1=O)NC1CC1 [Example 76, 2-[6-(4-chlorophenyl)-4-oxo-3H,4H-thieno[2,3-d]pyrimidin-3-yl]-N-cyclopropylacetamide] | 34
18 | O=C(Cn1cnc2sc(-c3ccc(Cl)cc3)cc2c1=O)N1CCOCC1 [Example 77, 6-(4-chlorophenyl)-3-[2-(morpholin-4-yl)-2-oxoethyl]-3H,4H-thieno[2,3-d]pyrimidin-4-one] | 18
19 | O=C(Cn1cnc2sc(-c3ccc(Cl)cc3)cc2c1=O)N1CCC(F)(F)CC1 [Example 78, 6-(4-chlorophenyl)-3-[2-(4,4-difluoropiperidin-1-yl)-2-oxoethyl]-3H,4H-thieno└2,3-d┘pyrimidin-4-one] | 13
20 | Cc1sc2ncn(CC(=O)N3CCCC3)c(=O)c2c1-c1ccc(Cl)cc1 [Example 79, 5-(4-Chloro-phenyl)-6-methyl-3-(2-oxo-2-pyrrolidin-1-yl-ethyl)-3H-thieno[2,3-d]pyrimidin-4-one] | 17
21 | Cc1sc2ncn(CC(=O)N3CCCC3C(F)(F)F)c(=O)c2c1-c1ccc(Cl)cc1 (centres unmarked) [Example 80, 5-(4-chlorophenyl)-6-methyl-3-{2-oxo-2-[2-(trifluoromethyl)pyrrolidin-1-yl]ethyl}-3H,4H-thieno[2,3-d]pyrimidin-4-one] | 10
22 | Cc1sc2ncn(CC(=O)N3CCCC3)c(=O)c2c1-c1ccc(F)c(C(F)(F)F)c1 [Example 81, 5-[4-fluoro-3-(trifluoromethyl)phenyl]-6-methyl-3-[2-oxo-2-(pyrrolidin-1-yl)ethyl]-3H,4H-thieno[2,3-d]pyrimidin-4-one] | 40
23 | Cc1sc2ncn(CC(=O)N3CCCC3)c(=O)c2c1-c1ccc(Cl)c(C(F)(F)F)c1 [Example 82, 5-[4-chloro-3-(trifluoromethyl)phenyl]-6-methyl-3-[2-oxo-2-(pyrrolidin-1-yl)ethyl]-3H,4H-thieno[2,3-d]pyrimidin-4-one] | 15
24 | Cc1sc2ncn(CC(=O)N3CCCC3)c(=O)c2c1-c1ccc(F)c(Cl)c1 [Example 83, 5-(3-chloro-4-fluorophenyl)-6-methyl-3-[2-oxo-2-(pyrrolidin-1-yl)ethyl]-3H,4H-thieno[2,3-d]pyrimidin-4-one] | 45
25 | Cc1sc2ncn(CC(=O)N3CCCC3)c(=O)c2c1-c1ccc(Cl)c(Cl)c1 [Example 84, 5-(3,4-dichlorophenyl)-6-methyl-3-[2-oxo-2-(pyrrolidin-1-yl)ethyl]-3H,4H-thieno[2,3-d]pyrimidin-4-one] | 60
26 | O=C(On1cnc2scc(-c3ccc(Cl)c(C(F)(F)F)c3)c2c1=O)N1CCCC1 [Example 85, 5-(4-chloro-3-(trifluoromethyl)phenyl)-4-oxothieno[2,3-d]pyrimidin-3(4H)-yl pyrrolidine-1-carboxylate] | 51
